In BindingDB's records for doi:10.1016/s0028-3908(97)00049-x (Roche Bioscience, 1997):

Legend:
[1] = molecular target: Beta-2 adrenergic receptor (Rattus norvegicus, UniProt P10608)
[2] = molecular target: T1, 5-hydroxytryptamine receptor 1A (Rattus norvegicus, UniProt P19327)
T1 sequence (P19327 whole entry): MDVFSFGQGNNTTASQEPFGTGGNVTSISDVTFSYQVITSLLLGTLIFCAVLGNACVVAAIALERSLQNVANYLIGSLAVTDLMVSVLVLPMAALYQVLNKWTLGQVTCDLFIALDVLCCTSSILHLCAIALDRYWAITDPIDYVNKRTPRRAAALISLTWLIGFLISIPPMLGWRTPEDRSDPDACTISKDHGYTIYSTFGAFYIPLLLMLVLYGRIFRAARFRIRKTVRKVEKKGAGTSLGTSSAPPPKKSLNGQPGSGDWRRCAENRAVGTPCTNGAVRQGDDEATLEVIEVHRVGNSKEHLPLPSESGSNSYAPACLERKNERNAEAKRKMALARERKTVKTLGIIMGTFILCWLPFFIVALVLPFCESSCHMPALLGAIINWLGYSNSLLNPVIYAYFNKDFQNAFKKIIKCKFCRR

[3] = molecular target: Glutamate receptor ionotropic, NMDA 1 (Rattus norvegicus, UniProt P35439)
Mu-type opioid receptor = Mu-type opioid receptor (Cavia porcellus, UniProt P97266)
Sequence of Mu-type opioid receptor (P97266 whole entry): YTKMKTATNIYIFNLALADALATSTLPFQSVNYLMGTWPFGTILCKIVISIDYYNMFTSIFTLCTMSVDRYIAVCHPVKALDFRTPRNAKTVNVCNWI

[4] = molecular target: Kappa-type opioid receptor (Cavia porcellus, UniProt P41144)
Sequence of Kappa-type opioid receptor (P41144 whole entry): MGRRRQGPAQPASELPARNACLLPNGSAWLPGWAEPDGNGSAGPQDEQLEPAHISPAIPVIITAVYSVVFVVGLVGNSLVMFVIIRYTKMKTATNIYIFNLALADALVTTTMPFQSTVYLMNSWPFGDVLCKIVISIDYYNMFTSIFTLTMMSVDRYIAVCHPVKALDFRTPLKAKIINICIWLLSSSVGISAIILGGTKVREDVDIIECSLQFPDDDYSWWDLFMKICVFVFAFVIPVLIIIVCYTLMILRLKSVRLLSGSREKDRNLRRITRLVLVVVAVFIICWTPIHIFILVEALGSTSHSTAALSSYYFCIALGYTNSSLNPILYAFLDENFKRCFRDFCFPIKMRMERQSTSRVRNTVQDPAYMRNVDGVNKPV

[5] = molecular target: T2, Muscarinic acetylcholine receptor M2 (Rattus norvegicus, UniProt P10980)
T2 sequence (P10980 whole entry): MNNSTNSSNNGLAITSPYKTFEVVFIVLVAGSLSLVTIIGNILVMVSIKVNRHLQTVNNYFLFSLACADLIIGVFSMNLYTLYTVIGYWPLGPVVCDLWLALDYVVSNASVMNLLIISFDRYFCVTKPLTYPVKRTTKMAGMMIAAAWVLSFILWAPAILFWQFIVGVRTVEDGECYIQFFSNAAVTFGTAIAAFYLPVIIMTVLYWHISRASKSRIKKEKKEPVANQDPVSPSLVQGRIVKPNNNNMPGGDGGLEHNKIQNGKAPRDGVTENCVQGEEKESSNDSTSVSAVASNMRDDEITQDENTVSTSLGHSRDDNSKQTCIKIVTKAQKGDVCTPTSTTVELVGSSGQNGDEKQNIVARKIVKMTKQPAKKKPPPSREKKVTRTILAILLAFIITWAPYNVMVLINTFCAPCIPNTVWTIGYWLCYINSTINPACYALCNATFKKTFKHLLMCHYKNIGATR

[6] = molecular target: Muscarinic acetylcholine receptor M3 (Rattus norvegicus, UniProt P08483)
Sequence of Muscarinic acetylcholine receptor M3 (P08483 whole entry): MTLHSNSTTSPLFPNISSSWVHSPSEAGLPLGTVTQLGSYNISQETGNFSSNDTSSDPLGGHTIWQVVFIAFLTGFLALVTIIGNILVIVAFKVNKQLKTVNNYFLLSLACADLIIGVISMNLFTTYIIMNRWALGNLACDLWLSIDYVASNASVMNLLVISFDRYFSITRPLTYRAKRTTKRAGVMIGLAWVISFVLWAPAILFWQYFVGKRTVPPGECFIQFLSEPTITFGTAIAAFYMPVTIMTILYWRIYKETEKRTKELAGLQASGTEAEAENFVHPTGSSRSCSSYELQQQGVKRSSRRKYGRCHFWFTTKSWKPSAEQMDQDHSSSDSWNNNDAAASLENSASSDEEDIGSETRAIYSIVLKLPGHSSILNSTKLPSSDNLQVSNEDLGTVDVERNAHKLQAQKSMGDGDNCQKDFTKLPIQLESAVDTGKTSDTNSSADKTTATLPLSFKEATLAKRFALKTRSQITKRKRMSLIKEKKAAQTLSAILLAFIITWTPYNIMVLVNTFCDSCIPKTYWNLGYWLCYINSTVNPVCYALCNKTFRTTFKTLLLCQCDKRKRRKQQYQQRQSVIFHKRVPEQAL

[7] = molecular target: T3, Muscarinic acetylcholine receptor M1 (Rattus norvegicus, UniProt P08482)
T3 sequence (P08482 whole entry): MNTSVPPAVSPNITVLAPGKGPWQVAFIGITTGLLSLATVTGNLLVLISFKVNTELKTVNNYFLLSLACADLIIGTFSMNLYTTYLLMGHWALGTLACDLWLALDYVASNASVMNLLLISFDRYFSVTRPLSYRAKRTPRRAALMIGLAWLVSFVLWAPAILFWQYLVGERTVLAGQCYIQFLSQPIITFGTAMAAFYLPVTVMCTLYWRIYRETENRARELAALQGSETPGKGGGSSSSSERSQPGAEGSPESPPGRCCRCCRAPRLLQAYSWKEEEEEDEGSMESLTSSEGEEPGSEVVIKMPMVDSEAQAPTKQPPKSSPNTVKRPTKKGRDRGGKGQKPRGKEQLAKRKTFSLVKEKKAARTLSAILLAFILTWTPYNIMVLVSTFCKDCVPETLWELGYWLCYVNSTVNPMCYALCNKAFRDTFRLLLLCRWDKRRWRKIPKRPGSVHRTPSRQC

[8] = molecular target: 5-hydroxytryptamine receptor 7 (Cavia porcellus, UniProt P50407)
Sequence of 5-hydroxytryptamine receptor 7 (P50407 whole entry): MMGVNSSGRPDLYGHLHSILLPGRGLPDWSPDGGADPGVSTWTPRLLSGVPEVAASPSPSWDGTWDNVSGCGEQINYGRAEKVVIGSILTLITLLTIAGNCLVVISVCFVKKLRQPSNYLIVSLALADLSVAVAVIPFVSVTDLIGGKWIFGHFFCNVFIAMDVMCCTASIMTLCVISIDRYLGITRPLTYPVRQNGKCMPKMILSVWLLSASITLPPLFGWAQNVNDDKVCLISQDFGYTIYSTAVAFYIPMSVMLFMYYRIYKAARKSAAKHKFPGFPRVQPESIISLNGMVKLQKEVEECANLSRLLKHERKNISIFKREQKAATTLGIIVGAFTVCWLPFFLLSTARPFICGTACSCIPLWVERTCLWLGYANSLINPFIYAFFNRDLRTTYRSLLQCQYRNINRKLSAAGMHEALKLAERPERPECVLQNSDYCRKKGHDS

[9] = molecular target: T4, 5-hydroxytryptamine receptor 3A (Mus musculus, UniProt P23979)
T4 sequence (P23979 whole entry): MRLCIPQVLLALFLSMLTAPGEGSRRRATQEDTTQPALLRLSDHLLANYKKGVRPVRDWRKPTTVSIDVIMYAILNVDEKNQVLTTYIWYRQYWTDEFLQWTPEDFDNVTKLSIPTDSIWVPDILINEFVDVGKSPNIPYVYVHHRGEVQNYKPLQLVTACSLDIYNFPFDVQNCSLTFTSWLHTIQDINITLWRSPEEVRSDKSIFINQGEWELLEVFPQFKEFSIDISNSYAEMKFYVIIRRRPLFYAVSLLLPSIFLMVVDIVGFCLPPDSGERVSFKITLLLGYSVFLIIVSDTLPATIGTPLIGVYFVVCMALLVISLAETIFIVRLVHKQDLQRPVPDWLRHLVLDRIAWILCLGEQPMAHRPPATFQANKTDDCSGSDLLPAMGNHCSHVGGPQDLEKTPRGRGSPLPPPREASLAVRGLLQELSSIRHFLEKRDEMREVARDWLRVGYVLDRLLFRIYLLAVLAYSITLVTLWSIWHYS

Glutamate receptor 3 = Glutamate receptor 3 (Rattus norvegicus, UniProt P19492)
Sequence of Glutamate receptor 3 (P19492 whole entry): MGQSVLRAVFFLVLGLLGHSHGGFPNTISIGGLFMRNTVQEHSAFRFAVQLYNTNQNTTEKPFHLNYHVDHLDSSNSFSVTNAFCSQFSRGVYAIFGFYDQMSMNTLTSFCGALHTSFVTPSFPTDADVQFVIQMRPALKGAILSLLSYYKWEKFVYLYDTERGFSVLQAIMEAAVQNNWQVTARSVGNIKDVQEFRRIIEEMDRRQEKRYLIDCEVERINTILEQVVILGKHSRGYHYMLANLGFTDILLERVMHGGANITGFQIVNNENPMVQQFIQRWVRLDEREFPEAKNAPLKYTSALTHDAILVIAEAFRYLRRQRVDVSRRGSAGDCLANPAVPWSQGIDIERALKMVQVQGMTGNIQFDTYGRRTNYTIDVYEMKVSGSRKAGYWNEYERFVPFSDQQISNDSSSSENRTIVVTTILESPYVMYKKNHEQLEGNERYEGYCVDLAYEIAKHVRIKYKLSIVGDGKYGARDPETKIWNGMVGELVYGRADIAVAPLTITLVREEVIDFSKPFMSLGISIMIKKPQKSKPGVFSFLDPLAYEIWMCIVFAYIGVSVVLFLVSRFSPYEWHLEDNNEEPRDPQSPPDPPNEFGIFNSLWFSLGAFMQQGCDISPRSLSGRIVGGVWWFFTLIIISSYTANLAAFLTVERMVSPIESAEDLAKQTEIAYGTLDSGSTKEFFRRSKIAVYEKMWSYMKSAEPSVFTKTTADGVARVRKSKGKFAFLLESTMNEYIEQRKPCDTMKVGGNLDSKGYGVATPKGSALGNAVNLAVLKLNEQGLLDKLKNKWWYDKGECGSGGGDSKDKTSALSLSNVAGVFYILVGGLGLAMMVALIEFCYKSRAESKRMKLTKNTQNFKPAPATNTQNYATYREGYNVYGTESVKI

[10] = molecular target: T5, Alpha-2A adrenergic receptor (Oryctolagus cuniculus, UniProt Q5ZQK3)
T5 sequence (Q5ZQK3 whole entry): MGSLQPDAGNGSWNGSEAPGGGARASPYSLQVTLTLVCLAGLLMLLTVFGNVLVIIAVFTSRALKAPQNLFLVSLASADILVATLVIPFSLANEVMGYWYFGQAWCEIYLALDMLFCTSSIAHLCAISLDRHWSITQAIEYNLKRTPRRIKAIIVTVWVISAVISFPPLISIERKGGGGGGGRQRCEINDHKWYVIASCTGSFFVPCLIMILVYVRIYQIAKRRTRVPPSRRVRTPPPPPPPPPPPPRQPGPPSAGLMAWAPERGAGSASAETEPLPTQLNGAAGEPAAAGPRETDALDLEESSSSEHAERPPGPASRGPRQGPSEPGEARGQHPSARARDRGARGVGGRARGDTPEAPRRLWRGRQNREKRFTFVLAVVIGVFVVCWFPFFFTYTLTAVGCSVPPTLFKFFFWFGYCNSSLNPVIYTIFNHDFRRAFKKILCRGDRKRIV

Substance-P receptor = Substance-P receptor (Homo sapiens, UniProt P25103)
Sequence of Substance-P receptor (P25103 whole entry): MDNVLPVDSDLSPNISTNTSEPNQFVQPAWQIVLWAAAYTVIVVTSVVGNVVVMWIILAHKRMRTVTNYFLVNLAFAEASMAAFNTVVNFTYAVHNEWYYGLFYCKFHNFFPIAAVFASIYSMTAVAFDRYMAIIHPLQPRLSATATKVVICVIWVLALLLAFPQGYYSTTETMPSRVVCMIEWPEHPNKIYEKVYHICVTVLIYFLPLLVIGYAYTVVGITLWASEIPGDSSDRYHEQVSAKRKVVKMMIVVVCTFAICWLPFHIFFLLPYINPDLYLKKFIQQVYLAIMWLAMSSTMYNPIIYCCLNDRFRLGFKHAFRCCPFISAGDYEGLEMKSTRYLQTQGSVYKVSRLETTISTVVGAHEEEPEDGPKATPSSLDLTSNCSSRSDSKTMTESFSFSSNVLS

[11] = molecular target: Gamma-aminobutyric acid receptor subunit alpha-1 (Rattus norvegicus, UniProt P62813)
Sequence of Gamma-aminobutyric acid receptor subunit alpha-1 (P62813 whole entry): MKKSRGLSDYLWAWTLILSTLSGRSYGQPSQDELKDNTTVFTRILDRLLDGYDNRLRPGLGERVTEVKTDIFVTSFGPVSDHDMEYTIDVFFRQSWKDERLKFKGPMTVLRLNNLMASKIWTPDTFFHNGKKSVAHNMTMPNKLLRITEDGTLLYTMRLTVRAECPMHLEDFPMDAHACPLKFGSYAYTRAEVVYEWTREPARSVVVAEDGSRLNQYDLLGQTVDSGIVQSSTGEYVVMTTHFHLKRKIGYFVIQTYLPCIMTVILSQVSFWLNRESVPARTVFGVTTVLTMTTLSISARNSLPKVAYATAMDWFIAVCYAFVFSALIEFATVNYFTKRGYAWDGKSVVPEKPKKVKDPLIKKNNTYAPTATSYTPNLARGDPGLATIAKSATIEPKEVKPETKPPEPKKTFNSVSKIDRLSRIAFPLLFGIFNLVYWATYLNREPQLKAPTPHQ

[12] = molecular target: T6, Alpha-2B adrenergic receptor (Rattus norvegicus, UniProt P19328)
T6 sequence (P19328 whole entry): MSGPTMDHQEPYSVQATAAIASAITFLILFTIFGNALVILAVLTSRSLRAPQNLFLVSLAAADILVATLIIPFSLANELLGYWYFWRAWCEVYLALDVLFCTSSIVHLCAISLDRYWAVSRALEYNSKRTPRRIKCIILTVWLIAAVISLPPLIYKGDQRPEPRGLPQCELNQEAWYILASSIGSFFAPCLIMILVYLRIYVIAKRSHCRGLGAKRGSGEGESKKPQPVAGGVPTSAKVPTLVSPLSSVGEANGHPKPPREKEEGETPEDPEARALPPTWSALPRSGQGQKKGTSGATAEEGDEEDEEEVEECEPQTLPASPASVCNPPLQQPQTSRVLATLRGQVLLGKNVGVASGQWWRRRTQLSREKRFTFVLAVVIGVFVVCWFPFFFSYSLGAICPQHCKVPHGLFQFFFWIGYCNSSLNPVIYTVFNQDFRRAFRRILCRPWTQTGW

[13] = molecular target: T7, Alpha-1B adrenergic receptor (Rattus norvegicus, UniProt P15823)
T7 sequence (P15823 whole entry): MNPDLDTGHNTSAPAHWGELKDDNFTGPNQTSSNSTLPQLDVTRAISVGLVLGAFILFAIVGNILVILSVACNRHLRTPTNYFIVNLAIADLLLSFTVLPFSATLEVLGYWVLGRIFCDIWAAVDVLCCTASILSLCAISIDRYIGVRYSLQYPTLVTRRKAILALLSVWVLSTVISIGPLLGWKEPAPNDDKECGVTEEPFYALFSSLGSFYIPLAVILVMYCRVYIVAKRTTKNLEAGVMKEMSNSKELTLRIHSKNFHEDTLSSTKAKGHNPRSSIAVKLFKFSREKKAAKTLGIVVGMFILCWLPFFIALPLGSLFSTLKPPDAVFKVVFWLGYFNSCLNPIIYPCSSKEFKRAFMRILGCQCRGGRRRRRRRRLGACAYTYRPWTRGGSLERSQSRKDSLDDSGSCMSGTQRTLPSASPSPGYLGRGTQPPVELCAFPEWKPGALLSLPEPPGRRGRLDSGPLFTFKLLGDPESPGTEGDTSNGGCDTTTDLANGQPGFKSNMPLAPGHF

[14] = molecular target: T8, Beta-1 adrenergic receptor (Oryctolagus cuniculus, UniProt A0A4Y6F0G0)
T8 sequence (A0A4Y6F0G0 whole entry): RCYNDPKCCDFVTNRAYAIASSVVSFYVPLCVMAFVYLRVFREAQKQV

Sequence of Beta-2 adrenergic receptor (P10608 whole entry): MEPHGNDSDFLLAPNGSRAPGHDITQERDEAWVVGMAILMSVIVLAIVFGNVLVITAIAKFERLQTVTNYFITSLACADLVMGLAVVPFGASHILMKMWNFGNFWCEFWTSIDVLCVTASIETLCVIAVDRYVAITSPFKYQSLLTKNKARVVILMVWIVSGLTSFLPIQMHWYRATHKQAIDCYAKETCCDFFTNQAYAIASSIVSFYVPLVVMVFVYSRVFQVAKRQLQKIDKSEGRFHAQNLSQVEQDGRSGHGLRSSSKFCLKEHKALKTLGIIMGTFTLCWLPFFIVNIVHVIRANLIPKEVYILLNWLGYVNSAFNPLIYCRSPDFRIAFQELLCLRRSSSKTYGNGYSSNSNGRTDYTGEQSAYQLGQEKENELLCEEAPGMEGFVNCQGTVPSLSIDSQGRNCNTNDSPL

## COc1cc(OC)c(C(=O)CCCCN2CCC3(CC2)NC(=O)NC3=O)cc1NS(=O)(=O)c1ccc(C(F)(F)F)cc1 [N-[5-[5-(2,4-Dioxo-1,3,8-triazaspiro[4.5]decan-8-yl)-1-oxopentyl]-2,4-dimethoxyphenyl]-4-(trifluoromethyl)benzenesulfonamide]
[1]
  Ki: > 10 µM
[2]
  Ki: > 10 µM
[3]
  Ki: > 10 µM
Mu-type opioid receptor
  Ki: > 10 µM
[4]
  Ki: > 10 µM
[5]
  Ki: > 10 µM
[6]
  Ki: > 10 µM
[7]
  Ki: > 10 µM
[8]
  Ki: > 10 µM
[9]
  Ki: > 10 µM
Glutamate receptor 3
  Ki: > 10 µM
[10]
  Ki: 316 nM
Substance-P receptor
  Ki: > 10 µM
[11]
  Ki: > 10 µM
[12]
  Ki: > 10 µM
[13]
  Ki: > 10 µM
[14]
  Ki: > 10 µM
